Measured values taken from patent publication US20160102074A1, “SUBSTITUTED AMIDE COMPOUNDS” (PFIZER INC., priority 2014, published 2016).

Key:
[1] = system: human PCSK9; experiment: PCSK9 AlphaLISA assay, PCSK9 lowering in WT7 cells; conditions: WT7 cells (Huh7 stably over-expressing human PCSK9), secreted PCSK9 by AlphaLISA, overnight incubation (16-24 h), top concentration 20 μM; read-out: Cell Based PCSK9 IC50
Description: PCSK9 Lowering in WT7 Cells
An in-vitro AlphaLISA assay (Perkin Elmer) was developed in order to quantitate the level of PCSK9 secreted into the cell culture media following compound treatment. To detect and measure PCSK9 protein a mouse monoclonal anti-human PCSK9 antibody was coupled to AlphaLISA acceptor beads by an external vendor (Perkin Elmer) and a second rabbit monoclonal anti-human PCSK9 antibody with an epitope distinct from that of the acceptor beads was biotinylated using the EZ link NHS-LC-LC-Biotin kit (Life Technologies #21338). Streptavidin coated-donor beads (Perkin Elmer) are also included in the assay mixture which then binds the biotinylated anti-PCSK9 antibody and in the presence of PCSK9 this donor complex and acceptor beads are brought into close proximity. Upon excitation of the donor beads at 680 nm singlet oxygen molecules are released that trigger an energy transfer cascade within the acceptor beads resolving as a single peak of light emitted at 615 nm. The ability of compound to modulate PCSK9 protein levels in conditioned media by AlphaLISA was assessed in the human hepatocellular carcinoma cell line Huh7, stably over-expressing human PCSK9. This cell line, termed WT7, was established by transfecting Huh7 cells with an in-house modified pcDNA 3.1 (+) Zeo expression vector (Life Technologies) containing the full-length human PCSK9 sequence (NCBI reference identifier, NM_174936.3, where coding sequence start annotated at position 363) and a c-terminal V5 and 6×-His tag. Following plasmid transfection the stable WT7 clone was identified and maintained under Zeocin selection. Compound screening was performed in 384-well plates where WT7 cells were plated at a density of 7500 cells per well in 20 μL of tissue culture media containing compound in an eleven point, 0.5 log dilution format at a high treatment concentration of 20 μM in a final volume of 0.5% DMSO. In additional to these test compound conditions each screening plate also included wells that contained 20 μM puromycin as a positive assay control defined as high percent effect, HPE, as well as wells containing media in 0.5% DMSO as a negative treatment control defined as zero percent effect, ZPE. After overnight compound incubation (16-24 h) the tissue culture media was collected and an aliquot from each sample was transferred to individual wells of a 384-well white Optiplate (Perkin Elmer). The coupled antibodies and donor beads were added to the assay plates in a buffer composed of 30 mM Tris pH 7.4, 0.02% Tween-20 and 0.02% Casein. Anti-PCSK9 acceptor beads (final concentration of 10 μg/mL) and anti-PCSK9 biotinylated antibody (final concentration of 3 nM) were added and incubated for 30 minutes at room temperature followed by the addition of the streptavidin donor beads (final concentration 40 μg/mL) for an additional 60 minutes. Additionally a standard curve was generated where AlphaLISA reagents were incubated in wells spiked with recombinant human PCSK9 diluted in tissue culture media from 5000 ng/mL to 0.6 ng/mL. Following incubation with AlphaLISA reagents plates were read on an EnVision (Perkin Elmer) plate reader at an excitation wavelength of […] and emission/detection wavelength of […]. To determine compound IC50 the data for HPEand ZPEcontrol wells were first analyzed and the mean, standard deviation and Z prime calculated for each plate. The test compound data were converted into percent effect, using the ZPE and HPE controls as 0% and 100% activity, respectively. The equation used for converting each well reading into percent effect was:
IC50 was then calculated and reported as the midpoint in the percent effect curve in molar units and the values are reported under the Cell Based PCSK9 IC50 (μM) column header within Table 2 Biological Data. […]

[2] = system: human PCSK9; experiment: Cell Free PCSK9 Assay (PCSK9-luciferase mRNA translation in HeLa lysate); format: biochemical; conditions: PCSK9-luciferase RNA, 30° C. for 45 minutes, top concentration 100 μM
Protocol: As defined herein inhibition of translation of PCSK9 mRNA to PCSK9 protein is determined by the “Cell Free PCSK9 Assay” provided herein in the specification. This “Cell Free PCSK9 Assay” is specific to the production of PCSK9 protein from PCSK9 mRNA and therefore detects inhibitors of this translational process rather than other mechanisms by which PCSK9 protein may be reduced.
In order to eliminate the permeability barrier inherent to the WT7 cell-based assays a cell-free system was also established to assess compound activitiy. A sequence containing the full length human PCSK9 (NCBI reference identifier, NM_174936.3, where coding sequence start annotated at position 363) along with 84 additional 3′ nucleotides, comprising a V5 tag and polylinker followed by an in frame modified firefly luciferase reporter (corresponding to nucleotide positions 283-1929 of pGL3, GenBank reference identifier JN542721.1) was cloned into the pT7CFE1 expression vector (ThermoScientific). The construct was then in-vitro transcribed using the MEGAscript T7 Kit (Life Technologies) and RNA subsequently purified incorporating the MEGAclear Kit (Life Technologies) according to manufacturer's protocols. HeLa cell lysates were prepared following the protocols described by Mikami (reference is Cell-Free Protein Synthesis Systems with Extracts from Cultured Human Cells, S. Mikami, T. Kobayashi and H. Imataka; from Methods in Molecular Biology, vol. 607, pages 43-52, Y. Endo et al. (eds.), Humana Press, 2010) with the following modifications. Cells were grown in a 20 L volume of CD293 medium (Gibco 11765-054) with Glutamax increased to 4 mM, penicillin at 100 U/mL and other additions as previously described by Mikami. Growth was in a 50 L wavebag at a rocker speed of 25 rpm and angle 6.1 with 5% CO2 and 0.2 LPM flow rate with cells harvested at a density of 2-2.5e6/mL. Lysates additionally contained 1 tablet of Roche cOmplete-EDTA protease inhibitors per 50 mL with tris(2-carboxyethyl)phosphine (Biovectra) substituted for dithiothreitol, and were clarified by an additional final centrifugation at 10,000 rpm in a Sorvall SS34 rotor at 4° C. for 10 minutes. Compound screening was performed in 384-well plates in an eleven point, 0.5 log dilution format at a top test compound concentration of 100 μM in a final volume of 0.5% DMSO. In additional to these test compound conditions each screening plate also included wells that contained 100 μM of compound example 16 (as depicted in WO2014170786; N-(3-chloropyridin-2-yl)-N-[(3R)-piperidin-3-yl]-4-(3H-[1,2,3]triazolo[4,5-b]pyridin-3-yl)benzamide) as a positive assay control defined as high percent effect, HPE, as well as wells containing media in 0.5% DMSO as a negative treatment control defined as zero percent effect, ZPE. Compounds were incubated at 30° C. for 45 minutes in a solution containing 0.1 μg of purified, in-vitro transcribed RNA together with the cell-free reaction mixture (consisting of 1.6 mM Mg and 112 mM K salts, 4.6 mM tris(2-carboxyethyl)phosphine (Biovectra), 5.0 μL HeLa lysate, 0.2 μL RNAsin (Promega) and 1.0 μL energy mix (containing 1.25 mM ATP (Sigma), 0.12 mM GTP (Sigma), 20 mM creatine phosphate (Santa Cruz), 60 μg/mL creatine phosphokinase (Sigma), 90 μg/mL tRNA (Sigma) and the 20 amino acids (Life Technologies) at final concentrations described by Mikami) and brought up in water to a final volume of 10 μL in water. Upon assay completion 1 μL from each reaction solution was removed and transferred to a second 384-well Optiplate (Perkin Elmer) containing 24 μL of SteadyGlo (Promega) and signal intensity was measured on the Envision (Perkin Elmer) using the enhanced luminescence protocol. To determine compound IC50 the data for HPE and ZPE control wells were first analyzed and the mean, standard deviation and Z prime calculated for each plate. The test compound data were converted into percent effect, using the ZPE and HPE controls as 0% and 100% activity, respectively, applying Equation 1 above. […]

Structure (SMILES) | IC50 [1] | IC50 [2]
Cc1cccnc1N(C(=O)c1ccc(-c2cnn(C)c2-c2nn[nH]n2)cn1)[C@@H]1CCCNC1 [Example 1, N-(3-methylpyridin-2-yl)-5-[1-methyl-5-(2H-tetrazol-5-yl)-1H-pyrazol-4-yl]-N-[(3R)-piperidin-3-yl]pyridine-2-carboxamide] | > 20 µM | 5.8 µM
CCOC(=O)O[C@H](C)n1nnnc1-c1c(-c2ccc(C(=O)N(c3ncccc3Cl)[C@@H]3CCCNC3)cc2)cnn1C [Example 12, ethyl (R)-1-{5-[1-methyl-4-(4-{(3-chloropyridin-2-yl)[(3R)-piperidin-3-yl]carbamoyl}phenyl)-1H-pyrazol-5-yl]-1H-tetrazol-1-yl}ethyl carbonate] | 17.3 µM | 15.4 µM
Cc1cccnc1N(C(=O)c1ccc(-c2cnn(C)c2-c2nn[nH]n2)c(F)c1)[C@@H]1CCCNC1 [Example 4, N-(3-methylpyridin-2-yl)-3-fluoro-4-[1-methyl-5-(2H-tetrazol-5-yl)-1H-pyrazol-4-yl]-N-[(3R)-piperidin-3-yl]benzamide] | > 20 µM | 15.3 µM
Cn1ncc(-c2ccc(C(=O)N(c3ncccc3Cl)[C@@H]3CCCNC3)nc2)c1-c1nn[nH]n1 [Example 2, N-(3-chloropyridin-2-yl)-5-[1-methyl-5-(2H-tetrazol-5-yl)-1H-pyrazol-4-yl]-N-[(3R)-piperidin-3-yl]pyridine-2-carboxamide] | > 20 µM | 10.5 µM
